Reference: patent EP0405506A1, “Tetrapeptide type-B CCK receptor ligands” (ABBOTT LABORATORIES, priority 1989, dated 1991)

Biological target: T1, cortical CCK receptor (Cavia porcellus, UniProt H0VZC5)
T1 construct: Cortical and pancreatic membranes were prepared as described; from tissue; host or cells: guinea pig cerebral cortex membranes
T1 sequence (H0VZC5 1-426): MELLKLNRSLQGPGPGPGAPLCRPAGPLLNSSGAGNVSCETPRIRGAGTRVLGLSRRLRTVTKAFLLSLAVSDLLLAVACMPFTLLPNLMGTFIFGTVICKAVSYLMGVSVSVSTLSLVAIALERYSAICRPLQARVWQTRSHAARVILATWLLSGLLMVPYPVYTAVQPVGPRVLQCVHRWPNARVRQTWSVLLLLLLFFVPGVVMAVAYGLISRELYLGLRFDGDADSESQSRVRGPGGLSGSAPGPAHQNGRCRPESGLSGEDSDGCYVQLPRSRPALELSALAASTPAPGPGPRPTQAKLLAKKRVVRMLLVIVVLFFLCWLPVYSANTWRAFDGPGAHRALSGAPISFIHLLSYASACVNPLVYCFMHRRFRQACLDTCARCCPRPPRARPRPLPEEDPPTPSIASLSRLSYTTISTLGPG
Experiment: Radioligand binding ([125I]Bolton-Hunter CCK8) in guinea pig cerebral cortical membranes
Conditions: displacement of [125I]BH-CCK8, cortical membranes, 30°C for 150 min, Hill analysis; read-out: IC₅₀ (nM) cortex
Source text: Protocol for Radioligand Binding Experiments in Guinea Pig Cerebral Cortical and Pancreatic Membrance Preparations
CCK8 (Asp-Tyr(SO₃H)-Met-Gly-Trp-Met-Asp-Phe-NH₂), bestatin and phosphormaidon were purchased from Peptide International (Louisville, KY). EGTA, HEPES, BSA were purchased from Sigma Chemical Co. (St. Louis, MO). [¹²⁵I]-Bolton-Hunter CCK8 (BH-CCK8) (specific activity, 2200 Ci, mmol) was obtained from New England Nuclear (Boston, MA). Male ginea pigs, 250 to 325 g, were obtained from Scientific Small Animal Laboratory and Farm (Arlington Heights, IL). Collangenase, code CLSPA was purchased from Worthington (Frehold, NJ).
Cortical and pancreatic membranes were prepared as described (Lin and Miller; J. Pharmacol. Exp. Ther. 232, 775-780, 1985). In brief, pancreas and cortex were removed and rinsed with ice-cold saline. Visible fat and connective tissues were removed from the pancreas. Tissues were weighed and homogenized in approximately 25 mL of ice-cold 50 mM Tris-HCl buffer, pH 7.4 at 4°C with a Brinkman Polytron for 30 sec, setting 7. The homogenates were centrifuged for 10 min at 1075 x g and the pellet was discarded. The supernantants were saved and centrifuged at 38,730 x g for 20 min. The resultant pellets were rehomogenized in 25 mL of 50 mM Tris-HCl buffer with a Teflon-glass homogenizer, 5 up and down strokes. The homogenates were centrifuged again at 38,730 x g for 20 min. The pellets were then resuspended in 20 mM HEPES, containing 1 mM EGTA, 118 mM NaCl, 4.7 mM KCl, 5mM MgCl₂, 100 uM bestatin, 3 uM phosphoramidon, pH 7.4 at 22°C with a Teflon-glass homogenizer, 15 up and down strokes. The resuspension volume used for the cortex was 15 mL per g of original wet weight and 60 mL per g for pancreas.
[¹²⁵I]Bolton-Hunter CCK8 and test compounds were diluted with HEPES-EGTA-salt buffer (see above) containing 0.5% bovine serum albumin (BSA). To 1 mL Skatron polystyrene tubes were added 25 uL of test compounds, 25 uL of [¹²⁵I]BH-CCK8 and 200 uL of membrane suspension. The final BSA concentration was 0.1%. The cortical tissues were incubated at 30°C for 150 min. and pancreatic tissues were incubated at 37°C for 150 min. Incubations were terminated by filtration using Skatron Cell Harvester and SS32 microfiber filter mats. The specific binding of [¹²⁵I]BH-CCK8, defined as the difference betwen binding in the absence and presence of 1 uM CCK8, was 85-90% of total binding in cortex and 90-95% in pancreas. IC₅₀s were determined from the Hill analysis.

IC50: 0.7 nM
SMILES: CCC[C@H]1CCN(C(=O)[C@@H]2Cc3c[nH]c4cccc(c34)CC(=O)N2)[C@@H]1C(=O)N[C@@H](CC(=O)O)C(=O)N[C@@H](Cc1ccccc1)C(N)=O [Example 48, Ctp-Tpp-Asp-Phe-NH₂]
